Converted amounts (≈) assume the structure as drawn.
Legend:
MCF7 = test: Anticancer activity against human MCF7 cells assessed as inhibition of cell proliferation measured after 48 hrs by MTT assay; type: functional, cell-based; conditions: MCF7, 48 h
HT-29 = test: Anticancer activity against human HT-29 cells assessed as inhibition of cell proliferative measured after 48 hrs by MTT assay; type: functional, cell-based; conditions: HT-29, 48 h
Staphylococcus aureus [1] = test: Antibacterial activity against methicillin-resistant Staphylococcus aureus ATCC 3300 assessed as reduction in microbial growth measured after 24 hrs by broth microdilution analysis; type: functional
Staphylococcus aureus [2] = test: Antibacterial activity against Staphylococcus aureus ATCC 29213 assessed as reduction in microbial growth measured after 24 hrs by broth microdilution analysis; type: functional
Bacillus subtilis = test: Antibacterial activity against Bacillus subtilis ATCC 6633 assessed as inhibition of bacterial growth incubated for 24 hrs by CLSI based broth microdilution method; type: functional
[3] = tested on: Staphylococcus epidermidis; test: Antibacterial activity against Staphylococcus epidermidis ATCC 12228 assessed as reduction in bacterial growth measured after 24 hrs by broth microdilution method; type: functional
Streptococcus pneumoniae [4] = test: Antibacterial activity against Streptococcus pneumoniae ATCC 49619 assessed as inhibition of bacterial growth incubated for 24 hrs by CLSI based broth microdilution method; type: functional
Staphylococcus aureus [5] = test: Antibacterial activity against Staphylococcus aureus ATCC 29213 assessed as bacterial growth inhibition incubated for 24 hrs by broth dilution method; type: functional
[6] = tested on: Mycobacterium tuberculosis; test: Antimycobacterial activity against Mycobacterium tuberculosis assessed as reduction in bacterial growth; type: functional
[7] = tested on: Mycobacterium tuberculosis; test: Antimycobacterial activity against Mycobacterium tuberculosis H37Rv assessed as reduction in bacterial cell growth by resazurin reduction method; type: functional
[8] = Clearance in CF1 mouse; type: ADME; conditions: in vivo
Staphylococcus aureus [9] = test: Antibacterial activity against Methicillin-resistant Staphylococcus aureus assessed as inhibition of bacterial growth; type: functional
Staphylococcus aureus [10] = test: Antibacterial activity against methicillin-susceptible Staphylococcus aureus assessed as inhibition of bacterial growth; type: functional
Staphylococcus aureus [11] = test: Antibacterial activity against Staphylococcus aureus ATCC 25923 assessed as growth inhibition measured after 18 hrs by CLSI based method; type: functional
Streptococcus pneumoniae [12] = test: Antibacterial activity against Streptococcus pneumoniae ATCC 49619 assessed as reduction in bacterial growth measured after 18 hrs by CLSI based analysis; type: functional
Streptococcus pyogenes = test: Antibacterial activity Streptococcus pyogenes ATCC 12344 assessed as reduction in microbial growth by broth microdilution method; type: functional
Moraxella catarrhalis [13] = test: Antibacterial activity against wild type Moraxella catarrhalis incubated for 20 hrs by two-fold serial dilution method; type: functional
Haemophilus influenzae [14] = test: Antibacterial activity against Haemophilus influenzae ATCC 49247 by broth microdilution method; type: functional
Staphylococcus aureus [15] = test: Antibacterial activity against Linezolid-resistant Staphylococcus aureus assessed as reduction in bacterial growth; type: functional
Enterococcus faecium = test: Antibacterial activity against Linezolid-resistant Enterococcus faecium assessed as reduction in bacterial growth; type: functional
Staphylococcus aureus [16] = test: Antibacterial activity against Staphylococcus aureus ATCC 29213 assessed as reduction in bacterial growth incubated for 24 hrs by Mueller Hinton Agar based plate analysis; type: functional
Staphylococcus aureus [17] = test: Antibacterial activity against Staphylococcus aureus ATCC 29213 assessed as reduction in bacterial growth incubated for 24 hrs by serial dilution method; type: functional
Staphylococcus aureus [18] = test: Antibacterial activity against Methicillin-resistant Staphylococcus aureus assessed as reduction in microbial growth by Muller Hinton broth based dilution assay; type: functional
Haemophilus influenzae [19] = test: Antibacterial activity against Haemophilus influenzae UC30063 assessed as reduction in bacterial growth by broth microdilution method; type: functional
Moraxella catarrhalis [20] = test: Antibacterial activity against Moraxella catarrhalis UC30610 assessed as reduction in bacterial growth by broth microdilution method; type: functional
[21] = tested on: Staphylococcus epidermidis; test: Antibacterial activity methicillin-resistant Staphylococcus epidermidis UC12084 assessed as reduction in bacterial growth by broth microdilution method; type: functional
Staphylococcus aureus [22] = test: In vivo Antibacterial activity against Methicillin-resistant Staphylococcus aureus in PO dosed mouse infected model assessed as reduction in bacterial load; type: functional
Enterococcus faecalis = test: Antibacterial activity against Enterococcus faecalis UC9217 assessed as reduction in bacterial growth by broth microdilution method; type: functional

Compound O=C1NC2(CO1)O/C(=C\c1ccc(Cl)cc1)C(=O)N2CCCNc1ccnc2cc(Cl)ccc12 (configuration not stated) has an IC50 (MCF7) of 16.1 µM and an IC50 (HT-29) of 32.4 µM.

For O=C1O[C@@H](COc2ccccn2)CN1c1ccc(C2=CCOCC2)c(F)c1, the MIC (Staphylococcus aureus [1]) was 1 µg/mL.

O=C([C@H](O)CO)N1CC=C(c2c(F)cc(N3C[C@H](COc4ccon4)OC3=O)cc2F)CC1 showed an MIC (Staphylococcus aureus [2]) of 0.25 µg/mL.

CC(=O)NC[C@H]1CN(c2cnc(N3CCN(C(=O)/C=C/c4ccco4)CC3)c(F)c2)C(=O)O1 gave an MIC (Bacillus subtilis) of 4 µg/mL (≈ 8.74 µM).

Work on O=C(CO)N1CC=C(c2ccc(N3C[C@H](COc4cnsn4)OC3=O)cc2F)CC1 yielded an MIC [3] of 0.13 µg/mL (≈ 0.299 µM).

Work on CC(=O)NC[C@H]1CN(c2ccc(N3CCN(C(=O)c4ccco4)CC3)nc2)C(=O)O1 yielded an MIC (Streptococcus pneumoniae [4]) of over 64 µg/mL.

CO/C(S)=N\C[C@H]1CN(c2cc(F)c3c(c2)OC[C@@H]2CCCN32)C(=O)O1 gave an MIC (Staphylococcus aureus [5]) of 0.5 µg/mL (≈ 1.31 µM).

In the case of O=C([C@H](O)CO)N1CC=C(c2ccc(N3C[C@H](COc4cnsn4)OC3=O)cc2F)CC1, the MIC [3] is reported as 0.13 µg/mL (≈ 0.28 µM).

For CC(=O)NC[C@H]1CN(c2ccc(N3CCSCC3)c(F)c2)C(=O)O1 [SUTEZOLID], the MIC [6] was 0.125 µg/mL (≈ 0.354 µM).

Work on CN1CCN(c2ccc(N3C[C@H](CO)OC3=O)cc2F)C=N1 [DELPAZOLID] yielded an MIC [7] of 0.5 µg/mL (≈ 1.62 µM).

CC/C(S)=N\C[C@H]1CN(c2cc(F)c3c(c2)OC[C@@H]2CCCN32)C(=O)O1 showed an MIC (Staphylococcus aureus [5]) of 0.5 µg/mL (≈ 1.32 µM).

C/C(S)=N\C[C@H]1CN(c2cc(F)c3c(c2)OC[C@@H]2CCCN32)C(=O)O1 gave an MIC (Staphylococcus aureus [5]) of 0.5 µg/mL (≈ 1.37 µM).

Work on CC(=O)NC[C@H]1CN(c2ccc(N3CCOCC3)c(F)c2)C(=O)O1 [LINEZOLID] yielded a clearance [8] of 10.5 mL/min/kg, an MIC (Staphylococcus aureus [9]) of 1 µg/mL (≈ 2.96 µM) and an MIC (Staphylococcus aureus [10]) of 1 µg/mL (≈ 2.96 µM).

CC(=O)NC[C@H]1CN(c2ccc(C3=CCOCC3)c(F)c2)C(=O)O1 gave an MIC (Staphylococcus aureus [1]) of 0.13 µg/mL.

For CC(=O)NC[C@H]1CN(c2ccc(-c3ccc(CNCc4cnn[nH]4)cc3)c(F)c2)C(=O)O1 [RADEZOLID], the MIC (Staphylococcus aureus [11]) was 1 µg/mL (≈ 2.28 µM), the MIC (Streptococcus pneumoniae [12]) was 0.25 µg/mL (≈ 0.57 µM) and the MIC (Streptococcus pyogenes) was 0.25 µg/mL. It also gave an MIC90 (Moraxella catarrhalis [13]) of 0.5 µg/mL (≈ 1.14 µM) and an MIC90 (Haemophilus influenzae [14]) of 1 µg/mL (≈ 2.28 µM).

Work on CC(=O)NC[C@H]1CN(c2ccc(N3CCN(c4c(F)cc5c(=O)c(C(=O)O)cn6c5c4OC[C@@H]6C)CC3)c(F)c2)C(=O)O1 yielded an MIC (Staphylococcus aureus [15]) of 2 µg/mL (≈ 3.35 µM) and an MIC (Enterococcus faecium) of 0.5 µg/mL (≈ 0.837 µM).

With CC(=O)NC[C@H]1CN(c2ccc3c(c2)OC[C@@H]2CCCN32)C(=O)O1 the MIC (Staphylococcus aureus [16]) was 4 µg/mL (≈ 12.1 µM).

With CC(=O)NC[C@H]1CN(c2ccc(-n3cc(C(=O)O)c(=O)c4cc(F)c(N5CCN(C)CC5)cc43)c(F)c2)C(=O)O1 the MIC (Staphylococcus aureus [17]) was over 64 µg/mL.

O=C1O[C@@H](Cn2ccnn2)CN1c1ccc(N2CCN(S(=O)(=O)c3cccc(C(F)(F)F)c3)CC2)c(F)c1 gave an MIC (Staphylococcus aureus [18]) of 0.5 µg/mL.

For CC(=O)NC[C@H]1CN(c2ccc(-n3cc(C#N)nn3)c(F)c2)C(=O)O1, the MIC (Haemophilus influenzae [19]) was 2 µg/mL (≈ 5.81 µM), the MIC (Moraxella catarrhalis [20]) was 2 µg/mL (≈ 5.81 µM) and the MIC [21] was 0.125 µg/mL (≈ 0.363 µM). It also gave an ED50 (Staphylococcus aureus [22]) of 1.2 mg/kg and an MIC (Enterococcus faecalis) of 0.125 µg/mL (≈ 0.363 µM).

From ChEMBL document CHEMBL5532634, “Oxazolidinone: A promising scaffold for the development of antibacterial drugs” (Eur J Med Chem, 2023)
